Laboratory results reported in patent US4272437A, “Antibacterial agents, and 4-thio azetidinone intermediates” (priority 1979, dated 1981).
In brackets after ≈: the same amount, converted by molar mass. Like-named read-outs stand apart in the source and are kept apart here.

Legend:
Ser. marcescens A-20019 = assay: MIC, tube dilution, Serratia marcescens A20019; format: cell-based; conditions: Serratia marcescens, A20019, Serratia marcescens A20019; overnight 37° C.; read-out: Minimum Inhibitory Concentration (M.I.C.)
Excerpt: (§1) Representative compounds of the present invention were subjected to in vitro antibiotic screening against a variety of microorganisms.

Staph. aureus A-9537 = assay: MIC, tube dilution, Staphylococcus aureus A9537; format: cell-based; conditions: overnight 37° C., Nutrient Broth; for MIC: Staphylococcus aureus, A9537, Staph. aureus A9537, read-out: Minimum Inhibitory Concentration (M.I.C.)
Excerpt: as §1

Str. pneumoniae A-9585 = assay: MIC, tube dilution, Streptococcus pneumoniae A9585; format: cell-based; conditions: overnight 37° C., Nutrient Broth
Excerpt: as §1

[1] = tested on: Klebsiella species A20468; assay: MIC, tube dilution, Klebsiella species A20468; format: cell-based; conditions: Klebsiella species (K. pneumoniae) A20468, overnight 37° C.; for MIC: read-out: Minimum Inhibitory Concentration (M.I.C.)
Excerpt: as §1

[2] = tested on: Staph. aureus (Pen-Res) A-9606; assay: MIC, tube dilution, Staphylococcus aureus A9606 (Pen-Res); format: cell-based; conditions: Staph. aureus A9606 (Pen-Res), overnight 37° C.; for MIC: Staphylococcus aureus, read-out: Minimum Inhibitory Concentration (M.I.C.)
Excerpt: as §1

[3] = tested on: Staph. aureus (Meth-Res) A-15097; assay: MIC, tube dilution, Staphylococcus aureus A15097 (Meth-Res); format: cell-based; conditions: Staph. aureus A15097 (Meth-Res), overnight 37° C.
Excerpt: as §1

E. coli A-15119 = assay: MIC, tube dilution, Escherichia coli A15119; format: cell-based; conditions: overnight 37° C.
Excerpt: as §1

Ps. aeruginosa A-21213 = assay: MIC, tube dilution, Pseudomonas aeruginosa A21213; format: cell-based; conditions: overnight 37° C., read-out: Minimum Inhibitory Concentration (M.I.C.)
Excerpt: as §1

S. aureus A9537 = assay: In vivo protection of mice, lethal infection with S. aureus A9537; conditions: Staphylococcus aureus, A9537, im, IM, 2 treatments, 1 × 10^6 organisms; read-out: PD50
Description: Representative compounds of the present invention were also tested in vivo in mice and their PD50 (dose of compound in mg/kg required to protect 50% of the treated mice against an otherwise lethal infection of a micro-organism) values determined with respect to the test organisms shown below.

[4] = tested on: Staph. aureus A-9537 and 50% serum; assay: MIC, tube dilution, Staph. aureus A9537 + 50% serum; format: cell-based, Staphylococcus aureus; conditions: overnight 37° C.; for MIC: Staphylococcus aureus, read-out: Minimum Inhibitory Concentration (M.I.C.)
Excerpt: as §1

Proteus vulgaris A21559 = assay: MIC, tube dilution, Proteus vulgaris A21559; format: cell-based; conditions: Proteus vulgaris, A21559, Proteus vulgaris A21559; overnight 37° C.; read-out: Minimum Inhibitory Concentration (M.I.C.)
Excerpt: as §1

Ent. cloacae A-9656 = assay: MIC, tube dilution, Enterobacter cloacae A9656; format: cell-based; conditions: overnight 37° C.; for MIC: read-out: Minimum Inhibitory Concentration (M.I.C.)
Excerpt: as §1

Pr. mirabilis A-9900 = assay: MIC, tube dilution, Proteus mirabilis A9900; format: cell-based; conditions: Proteus mirabilis, A9900, Proteus mirabilis A9900; overnight 37° C.; read-out: Minimum Inhibitory Concentration (M.I.C.)
Excerpt: as §1

Pr. morganii A-15153 = assay: MIC, tube dilution, Proteus morganii A15153; format: cell-based; conditions: Morganella morganii, A15153, Proteus morganii A15153; overnight 37° C.; read-out: Minimum Inhibitory Concentration (M.I.C.)
Excerpt: as §1

Str. pyogenes A-9604 = assay: MIC, tube dilution, Streptococcus pyogenes A9604; format: cell-based; conditions: overnight 37° C., Nutrient Broth; for MIC: Streptococcus pyogenes, A9604, Str. pyogenes A9604, read-out: Minimum Inhibitory Concentration (M.I.C.)
Excerpt: as §1

Proteus rettgeri A21203 = assay: MIC, tube dilution, Proteus rettgeri A21203; format: cell-based; conditions: Providencia rettgeri, A21203, Proteus rettgeri A21203; overnight 37° C.; read-out: Minimum Inhibitory Concentration (M.I.C.)
Excerpt: as §1

[5] = Mouse blood levels after intramuscular administration; format: in vivo; conditions: average of 6 mice, read-out: Mouse blood level
Description: Mouse blood levels after intramuscular administration of representative compounds of the present invention were determined and are reported in the table below.

K. pneumoniae A-15130 = assay: MIC, tube dilution, Klebsiella pneumoniae A15130; format: cell-based; conditions: overnight 37° C.
Excerpt: as §1

E. coli A-20341-1 = assay: MIC, tube dilution, Escherichia coli A20341-1; format: cell-based
Excerpt: as §1

Ps. aeruginosa A-9843A = assay: MIC, tube dilution, Pseudomonas aeruginosa A9843A; format: cell-based; conditions: overnight 37° C.
Excerpt: as §1

Ent. cloacae A-9659 = assay: MIC, tube dilution, Enterobacter cloacae A9659; format: cell-based; conditions: overnight 37° C.
Excerpt: as §1

Str. faecalis A-20688 = assay: MIC, tube dilution, Streptococcus faecalis A20688; format: cell-based; conditions: overnight 37° C.; for MIC: Enterococcus faecalis, A20688, Str. faecalis A20688, read-out: Minimum Inhibitory Concentration (M.I.C.)
Excerpt: as §1

[6] = tested on: Providencia stuartii A21205; assay: MIC, tube dilution, Providencia stuartii (Pr. rettgeri) A21205; format: cell-based; conditions: Providencia stuartii
Excerpt: as §1

[7] = Escherichia coli, A203411, E. coli A20341-1; overnight 37° C.; read-out: Minimum Inhibitory Concentration (M.I.C.)
[8] = Escherichia coli, A203411; E. coli A20341-1; overnight 37° C.; read-out: Minimum Inhibitory Concentration (M.I.C.)

Question: Which MIC (Ser. marcescens A-20019) does the source give for `NCCCCCC1=C(C(=O)O)N2C(=O)C[C@H]2S1` [Example 87, 2-(5-Aminopentyl)-penem-3-carboxylic acid] here?
Answer: 2 µg/mL (≈ 7.8 µM)

Question: What about the MIC (Staph. aureus A-9537) of the same molecule?
Answer: 0.016 µg/mL (≈ 0.0624 µM)

Question: And the MIC (Str. pneumoniae A-9585; Streptococcus pneumoniae, A9585, Str. pneumoniae A9585, read-out: Minimum Inhibitory Concentration (M.I.C.))?
Answer: 0.008 µg/mL (≈ 0.0312 µM)

Question: What about the MIC [1] of the same molecule?
Answer: > 125 µg/mL

Question: What about the MIC [2] of the same molecule?
Answer: 4 µg/mL (≈ 15.6 µM)

Question: And the “Minimum Inhibitory Concentration (M.I.C.)” value [3]?
Answer: 32 µg/mL

Question: What about the “Minimum Inhibitory Concentration (M.I.C.)” value (E. coli A-15119; E. coli A15119) of the same molecule?
Answer: 4 µg/mL

Question: And the MIC (Ps. aeruginosa A-21213; Pseudomonas aeruginosa, A21213, Pseudomonas aeruginosa A21213)?
Answer: > 125 µg/mL

Question: And the ED50 (S. aureus A9537)?
Answer: 0.12 mg/kg

Question: What about the MIC [4] of the same molecule?
Answer: 0.13 µg/mL

Question: What about the MIC (Proteus vulgaris A21559) of the same molecule?
Answer: 16 µg/mL (≈ 62.4 µM)

Question: And the “Minimum Inhibitory Concentration (M.I.C.)” value (Ent. cloacae A-9656; Enterobacter cloacae A9656)?
Answer: 8 µg/mL

Question: And the MIC (Pr. mirabilis A-9900)?
Answer: 4 µg/mL (≈ 15.6 µM)

Question: What about the MIC (Pr. morganii A-15153) of the same molecule?
Answer: 4 µg/mL (≈ 15.6 µM)

Question: What about the MIC (Str. pyogenes A-9604) of the same molecule?
Answer: 0.008 µg/mL (≈ 0.0312 µM)

Question: What about the MIC (Proteus rettgeri A21203) of the same molecule?
Answer: 4 µg/mL (≈ 15.6 µM)

Question: And the concentration at 10 min ([5]; 10 minutes after IM 40 mg/kg)?
Answer: 50300 ng/mL

Question: What about the concentration at 20 min ([5]; 20 minutes after IM 40 mg/kg) of the same molecule?
Answer: 47300 ng/mL

Question: And the concentration at 0.5 h ([5]; 30 minutes after IM 40 mg/kg)?
Answer: 34600 ng/mL

Question: And the concentration at 0.75 h ([5]; 45 minutes after IM 40 mg/kg)?
Answer: 23300 ng/mL

Question: What about the “Minimum Inhibitory Concentration (M.I.C.)” value (K. pneumoniae A-15130; K. pneumoniae A15130) of the same molecule?
Answer: 8 µg/mL

Question: And the MIC (E. coli A-20341-1; [7])?
Answer: 16 µg/mL (≈ 62.4 µM)

Question: And the “Minimum Inhibitory Concentration (M.I.C.)” value (Ps. aeruginosa A-9843A; Pseudomonas aeruginosa A9843A)?
Answer: 32 µg/mL

Question: What about the “Minimum Inhibitory Concentration (M.I.C.)” value (Ent. cloacae A-9659; Enterobacter cloacae A9659) of the same molecule?
Answer: 16 µg/mL

Question: What about the MIC (Str. faecalis A-20688) of the same molecule?
Answer: 8 µg/mL (≈ 31.2 µM)

Question: For `CC1=C(C(=O)O)N2C(=O)C[C@H]2S1` [Preparation 4(-), (-)-2-Methylpenem-3-carboxylic Acid], which “Minimum Inhibitory Concentration (M.I.C.)” value (Staph. aureus A-9537; Staph. aureus A9537) is on record?
Answer: 32 µg/mL

Question: What about the “Minimum Inhibitory Concentration (M.I.C.)” value (Str. pneumoniae A-9585; Str. pneumoniae A9585) of the same molecule?
Answer: 8 µg/mL

Question: And the “Minimum Inhibitory Concentration (M.I.C.)” value [1]?
Answer: > 125 µg/mL

Question: And the “Minimum Inhibitory Concentration (M.I.C.)” value [4]?
Answer: > 63 µg/mL

Question: And the MIC (Ent. cloacae A-9656; Enterobacter cloacae A9656)?
Answer: > 125 µg/mL

Question: And the “Minimum Inhibitory Concentration (M.I.C.)” value (Str. pyogenes A-9604; Str. pyogenes A9604)?
Answer: 8 µg/mL

Question: And the MIC (E. coli A-20341-1; [8])?
Answer: > 125 µg/mL

Question: And the MIC ([6]; A21205, read-out: Minimum Inhibitory Concentration (M.I.C.))?
Answer: > 125 µg/mL

Question: With `CSCC1=C(C(=O)O)N2C(=O)C[C@H]2S1` [Preparation 9, 2-Methylthiomethylpenem-3-carboxylic Acid] as the molecule, how does the MIC (Ser. marcescens A-20019) read?
Answer: 4 µg/mL (≈ 17.3 µM)

Question: What about the MIC (Staph. aureus A-9537) of the same molecule?
Answer: 0.5 µg/mL (≈ 2.16 µM)

Question: What about the MIC [1] of the same molecule?
Answer: > 125 µg/mL

Question: And the “Minimum Inhibitory Concentration (M.I.C.)” value [2]?
Answer: 4 µg/mL

Question: What about the MIC [2] of the same molecule?
Answer: 8 µg/mL (≈ 34.6 µM)

Question: What about the “Minimum Inhibitory Concentration (M.I.C.)” value [3] of the same molecule?
Answer: 8 µg/mL

Question: And the MIC ([3]; Staphylococcus aureus, read-out: Minimum Inhibitory Concentration (M.I.C.))?
Answer: 16 µg/mL (≈ 69.2 µM)

Question: And the MIC (E. coli A-15119; Escherichia coli, A15119, E. coli A15119, read-out: Minimum Inhibitory Concentration (M.I.C.))?
Answer: 1 µg/mL (≈ 4.32 µM)

Question: What about the MIC (Ps. aeruginosa A-21213; Pseudomonas aeruginosa A21213) of the same molecule?
Answer: > 125 µg/mL

Question: And the MIC [4]?
Answer: 63 µg/mL

Question: What about the “Minimum Inhibitory Concentration (M.I.C.)” value (Ent. cloacae A-9656; Enterobacter cloacae A9656) of the same molecule?
Answer: 8 µg/mL

Question: And the MIC (Ent. cloacae A-9656; Enterobacter cloacae, A9656, Enterobacter cloacae A9656)?
Answer: 16 µg/mL (≈ 69.2 µM)

Question: And the MIC (Pr. mirabilis A-9900)?
Answer: 1 µg/mL (≈ 4.32 µM)

Question: And the MIC (Pr. morganii A-15153)?
Answer: 4 µg/mL (≈ 17.3 µM)

Question: And the MIC (Str. pyogenes A-9604)?
Answer: 0.25 µg/mL (≈ 1.08 µM)

Question: And the MIC (K. pneumoniae A-15130; Klebsiella pneumoniae, A15130, K. pneumoniae A15130, read-out: Minimum Inhibitory Concentration (M.I.C.))?
Answer: 16 µg/mL (≈ 69.2 µM)

Question: What about the MIC (E. coli A-20341-1; [7]) of the same molecule?
Answer: 63 µg/mL (≈ 272 µM)

Question: What about the MIC (E. coli A-20341-1; [8]) of the same molecule?
Answer: > 125 µg/mL

Question: And the MIC (Ps. aeruginosa A-9843A; Pseudomonas aeruginosa, A9843A, read-out: Minimum Inhibitory Concentration (M.I.C.), Pseudomonas aeruginosa A9843A)?
Answer: > 125 µg/mL

Question: And the MIC (Ent. cloacae A-9659; Enterobacter cloacae, A9659, Enterobacter cloacae A9659, read-out: Minimum Inhibitory Concentration (M.I.C.))?
Answer: 4 µg/mL (≈ 17.3 µM)

Question: And the MIC ([6]; A21205, Providencia stuartii (Pr. rettgeri) A21205, overnight 37° C., read-out: Minimum Inhibitory Concentration (M.I.C.))?
Answer: 2 µg/mL (≈ 8.65 µM)

Question: And the MIC (Str. faecalis A-20688)?
Answer: 63 µg/mL (≈ 272 µM)

Question: What about the “Minimum Inhibitory Concentration (M.I.C.)” value (Str. faecalis A-20688; Str. faecalis A20688) of the same molecule?
Answer: 32 µg/mL
